IC50 data for 5 compounds are collected here from the Kinase Knowledgebase extract (Sharma et al. 2016).

pIC50: −log10 of the molar value.

For one assay, the target named is PIK3CA (human) (UniProt P42336). The assay is described as follows: Inhibition of PIK3CA Kinase Activity.
The next assay deals with PIK3CB (Human) (UniProt P42338). The assay is described as follows: Inhibition of PIK3CB Kinase Activity.
The target in a further assay is PIK3CD (Human) (UniProt O00329). The assay can be described thus: Inhibition of PIK3CD Kinase Activity.
Chain of PIK3CD (Human) (O00329 whole entry, looked up): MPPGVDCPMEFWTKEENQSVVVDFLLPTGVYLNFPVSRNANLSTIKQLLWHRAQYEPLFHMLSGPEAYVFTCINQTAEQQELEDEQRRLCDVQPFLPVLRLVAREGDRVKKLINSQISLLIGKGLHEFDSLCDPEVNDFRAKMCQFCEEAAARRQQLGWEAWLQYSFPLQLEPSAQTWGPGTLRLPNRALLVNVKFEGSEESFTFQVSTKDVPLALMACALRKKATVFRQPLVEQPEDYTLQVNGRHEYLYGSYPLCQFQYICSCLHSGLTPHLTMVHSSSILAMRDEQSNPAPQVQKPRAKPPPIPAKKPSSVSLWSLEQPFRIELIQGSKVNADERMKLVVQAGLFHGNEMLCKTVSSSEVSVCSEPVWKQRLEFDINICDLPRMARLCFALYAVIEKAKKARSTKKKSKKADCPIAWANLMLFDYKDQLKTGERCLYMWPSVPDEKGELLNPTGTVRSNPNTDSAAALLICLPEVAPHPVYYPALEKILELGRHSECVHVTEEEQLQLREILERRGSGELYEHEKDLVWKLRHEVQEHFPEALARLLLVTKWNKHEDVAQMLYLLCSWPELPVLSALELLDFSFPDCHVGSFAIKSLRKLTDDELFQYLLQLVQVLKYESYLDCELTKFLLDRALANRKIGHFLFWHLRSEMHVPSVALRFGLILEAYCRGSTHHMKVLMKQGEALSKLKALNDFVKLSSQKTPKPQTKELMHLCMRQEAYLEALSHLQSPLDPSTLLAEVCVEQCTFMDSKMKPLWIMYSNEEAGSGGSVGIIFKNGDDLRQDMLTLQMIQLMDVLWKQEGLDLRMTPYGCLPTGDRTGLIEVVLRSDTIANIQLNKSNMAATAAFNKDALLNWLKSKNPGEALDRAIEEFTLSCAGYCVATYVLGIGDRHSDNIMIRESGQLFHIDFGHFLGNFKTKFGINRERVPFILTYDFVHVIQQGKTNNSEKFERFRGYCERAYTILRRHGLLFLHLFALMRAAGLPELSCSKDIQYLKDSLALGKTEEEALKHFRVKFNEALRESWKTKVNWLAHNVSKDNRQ
The target of a further assay is PIK3CG (human) (UniProt P48736). The assay can be described thus: Inhibition of PIK3CG Kinase Activity.
Chain of PIK3CG (human) (P48736 whole entry, looked up): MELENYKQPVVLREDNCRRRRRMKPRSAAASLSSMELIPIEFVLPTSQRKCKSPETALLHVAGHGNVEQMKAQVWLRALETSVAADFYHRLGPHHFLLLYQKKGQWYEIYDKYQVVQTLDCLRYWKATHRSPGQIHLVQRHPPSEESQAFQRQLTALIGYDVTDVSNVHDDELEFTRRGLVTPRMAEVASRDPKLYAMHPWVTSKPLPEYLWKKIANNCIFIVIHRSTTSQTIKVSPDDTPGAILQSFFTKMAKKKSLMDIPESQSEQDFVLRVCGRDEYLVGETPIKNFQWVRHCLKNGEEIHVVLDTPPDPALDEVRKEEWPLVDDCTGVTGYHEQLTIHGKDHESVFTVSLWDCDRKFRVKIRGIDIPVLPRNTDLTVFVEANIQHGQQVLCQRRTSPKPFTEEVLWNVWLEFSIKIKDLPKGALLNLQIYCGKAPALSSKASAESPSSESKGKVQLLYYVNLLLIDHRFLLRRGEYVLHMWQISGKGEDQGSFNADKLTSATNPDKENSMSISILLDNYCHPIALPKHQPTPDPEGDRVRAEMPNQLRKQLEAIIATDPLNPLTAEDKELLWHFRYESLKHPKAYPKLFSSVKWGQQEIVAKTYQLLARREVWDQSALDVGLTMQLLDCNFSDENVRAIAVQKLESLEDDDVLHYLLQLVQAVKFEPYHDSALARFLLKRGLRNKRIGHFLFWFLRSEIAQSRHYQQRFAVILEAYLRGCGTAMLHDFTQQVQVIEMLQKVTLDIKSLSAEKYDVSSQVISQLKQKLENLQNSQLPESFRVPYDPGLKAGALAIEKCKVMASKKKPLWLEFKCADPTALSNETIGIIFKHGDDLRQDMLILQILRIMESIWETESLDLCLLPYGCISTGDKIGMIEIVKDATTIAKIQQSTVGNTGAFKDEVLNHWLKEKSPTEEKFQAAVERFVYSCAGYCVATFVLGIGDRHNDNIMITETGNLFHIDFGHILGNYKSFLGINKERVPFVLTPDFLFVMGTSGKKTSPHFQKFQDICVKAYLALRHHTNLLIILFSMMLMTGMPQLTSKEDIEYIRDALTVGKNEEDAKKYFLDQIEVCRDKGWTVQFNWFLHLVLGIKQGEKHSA

Chain of PIK3CA (human) (P42336 whole entry, looked up): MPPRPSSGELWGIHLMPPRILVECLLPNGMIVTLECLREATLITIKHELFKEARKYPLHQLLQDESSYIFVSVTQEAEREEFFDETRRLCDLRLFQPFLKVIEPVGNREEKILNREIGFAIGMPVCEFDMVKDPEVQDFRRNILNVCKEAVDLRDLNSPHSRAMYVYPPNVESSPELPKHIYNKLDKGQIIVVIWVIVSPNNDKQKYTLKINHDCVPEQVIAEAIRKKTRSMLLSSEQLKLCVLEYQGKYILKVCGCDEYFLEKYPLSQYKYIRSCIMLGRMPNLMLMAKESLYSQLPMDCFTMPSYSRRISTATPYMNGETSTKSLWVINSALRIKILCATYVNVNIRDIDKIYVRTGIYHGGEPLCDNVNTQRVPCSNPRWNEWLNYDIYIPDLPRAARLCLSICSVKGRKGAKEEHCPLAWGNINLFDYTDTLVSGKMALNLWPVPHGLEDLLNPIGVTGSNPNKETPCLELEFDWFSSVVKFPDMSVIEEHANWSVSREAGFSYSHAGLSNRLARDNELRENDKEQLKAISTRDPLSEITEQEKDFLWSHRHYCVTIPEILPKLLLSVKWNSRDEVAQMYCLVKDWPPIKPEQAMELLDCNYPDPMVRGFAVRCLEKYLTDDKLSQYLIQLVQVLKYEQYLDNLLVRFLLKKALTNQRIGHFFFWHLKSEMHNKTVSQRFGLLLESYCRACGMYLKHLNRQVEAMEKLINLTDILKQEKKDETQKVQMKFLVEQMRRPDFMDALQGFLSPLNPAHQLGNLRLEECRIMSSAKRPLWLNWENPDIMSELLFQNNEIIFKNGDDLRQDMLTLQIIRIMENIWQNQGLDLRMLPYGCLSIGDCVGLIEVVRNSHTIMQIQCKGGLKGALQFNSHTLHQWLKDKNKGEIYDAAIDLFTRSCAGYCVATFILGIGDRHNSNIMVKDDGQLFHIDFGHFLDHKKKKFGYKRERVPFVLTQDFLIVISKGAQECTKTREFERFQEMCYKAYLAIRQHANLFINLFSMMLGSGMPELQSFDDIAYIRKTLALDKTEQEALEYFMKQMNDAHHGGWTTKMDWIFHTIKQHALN
Chain of PIK3CB (Human) (P42338 whole entry, looked up): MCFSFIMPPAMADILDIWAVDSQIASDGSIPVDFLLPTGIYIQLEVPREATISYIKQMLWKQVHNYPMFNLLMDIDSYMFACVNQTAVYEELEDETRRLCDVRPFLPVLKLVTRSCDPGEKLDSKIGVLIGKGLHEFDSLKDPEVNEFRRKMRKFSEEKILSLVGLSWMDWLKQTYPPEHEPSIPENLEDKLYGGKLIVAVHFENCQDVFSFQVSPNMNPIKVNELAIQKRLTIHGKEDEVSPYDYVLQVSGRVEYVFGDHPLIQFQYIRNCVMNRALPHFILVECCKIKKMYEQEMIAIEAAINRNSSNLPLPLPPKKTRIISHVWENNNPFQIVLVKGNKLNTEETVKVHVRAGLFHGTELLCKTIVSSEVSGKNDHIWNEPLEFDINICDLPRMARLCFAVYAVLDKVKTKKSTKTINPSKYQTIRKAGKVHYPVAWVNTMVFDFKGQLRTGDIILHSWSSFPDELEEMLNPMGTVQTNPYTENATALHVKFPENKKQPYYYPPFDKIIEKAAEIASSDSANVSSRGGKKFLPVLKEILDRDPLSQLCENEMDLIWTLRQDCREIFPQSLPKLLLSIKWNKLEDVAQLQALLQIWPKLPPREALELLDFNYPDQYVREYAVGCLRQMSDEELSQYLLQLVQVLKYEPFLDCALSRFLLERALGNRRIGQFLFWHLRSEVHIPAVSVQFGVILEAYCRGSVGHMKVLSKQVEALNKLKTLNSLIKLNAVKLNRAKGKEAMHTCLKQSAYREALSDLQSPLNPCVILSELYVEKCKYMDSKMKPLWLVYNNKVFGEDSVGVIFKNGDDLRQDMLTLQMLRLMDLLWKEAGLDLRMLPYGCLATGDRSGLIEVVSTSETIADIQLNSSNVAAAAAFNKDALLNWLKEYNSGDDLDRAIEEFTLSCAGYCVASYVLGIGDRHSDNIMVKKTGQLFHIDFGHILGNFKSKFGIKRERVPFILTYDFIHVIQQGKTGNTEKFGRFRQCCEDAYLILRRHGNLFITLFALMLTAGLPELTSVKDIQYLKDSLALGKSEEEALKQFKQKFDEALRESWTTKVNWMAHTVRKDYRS

`COc1ccc(-c2ccc3nc(C)c(-c4cccnc4)n3n2)cc1OC`: the results for the pIC50 at PIK3CA (human), against PIK3CB (Human) and on PIK3CD (Human) were 7.23, 5.86 and 6.51, respectively.

Regarding `COc1cc(-c2ccc3nc(C)c(-c4cnc(N)c(C(F)(F)F)c4)n3n2)ccc1OC1CCNCC1`, the negative logarithm of the IC50 (pIC50) (usually −log10 of the IC50, conventionally taken in molar units) at PIK3CA (human) is 7.20; against PIK3CB (Human) it was 5.98; against PIK3CD (Human) it was 6.82; against PIK3CG (human), 5.93.

As for `COc1cccc(NC(=O)NCCCOc2ccc(-c3ccc4nc(C)c(-c5cnc(N)c(C(F)(F)F)c5)n4n3)cc2OC)c1`, the pIC50 against PIK3CA (human) is 6.03.

`COc1cc(-c2ccc3nc(C)c(-c4cnc(N)c(C(F)(F)F)c4)n3n2)ccc1OCCNC(=O)Nc1cccc(C(F)(F)F)c1` showed a negative-log IC50 (pIC50) against PIK3CA (human) of 5.43.

On PIK3CA (human), `COc1cc(-c2ccc3nc(C)c(-c4cnc(N)c(C(F)(F)F)c4)n3n2)ccc1OCCCNC(=O)c1ccc(F)c(F)c1` gave a pIC50 of 5.45.
